Data: patent US20050234066A1, “Alpha substituted carboxylic acids” (Agouron Pharmaceuticals, Inc., priority 2004, published 2005)

How the values were obtained:
PPAR-α = target: T1, PPAR-α (Homo sapiens, UniProt Q07869); assay: Scintillation Proximity Assay (SPA), displacement of 3H labeled GW2331; type: binding; details: 3H GW2331 displacement, read-out: PPAR-alpha Ki
T1 sequence (Q07869 1-468): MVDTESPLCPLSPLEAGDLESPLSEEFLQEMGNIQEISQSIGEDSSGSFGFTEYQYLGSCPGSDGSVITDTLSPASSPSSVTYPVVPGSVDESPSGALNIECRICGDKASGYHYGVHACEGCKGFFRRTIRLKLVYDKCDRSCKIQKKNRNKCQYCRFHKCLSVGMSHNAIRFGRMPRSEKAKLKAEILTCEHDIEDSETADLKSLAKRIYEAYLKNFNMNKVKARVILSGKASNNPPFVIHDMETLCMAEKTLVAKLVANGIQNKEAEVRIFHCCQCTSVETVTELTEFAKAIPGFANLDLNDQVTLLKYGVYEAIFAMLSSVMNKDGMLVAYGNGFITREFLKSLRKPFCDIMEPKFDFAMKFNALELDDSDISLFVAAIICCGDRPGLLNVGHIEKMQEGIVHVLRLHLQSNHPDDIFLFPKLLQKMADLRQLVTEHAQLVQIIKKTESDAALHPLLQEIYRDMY
Excerpt: (§1) Scintillatian Proximity Assay (SPA) Assays
(§2) In the SPA assay, 3H labeled darglitazone (for PPAR-γ) or GW2331 (for PPAR-α) is bound to the PPAR protein captured on SPA polylysine beads and generates radioactive count signal that can be detected by TopCounts (Packard). The PPAR-bound 3H labeled ligand can be displaced by an unlabeled compound. The Ki of the compound can be then determined by the extent of displacement at various compound concentrations. Reagents: • SPA polylysine beads, which can be purchased from Amersham Bioscience. • H labeled Darglitazone for PPAR-γ. • H labeled GW2331 for PPAR-α. • PPAR proteins. • Buffer—PBS, 10% glycerol, 14 mM beta-mercaptoethanol.

PPAR-γ = target: T2, PPAR-γ (Homo sapiens, UniProt P37231); assay: Scintillation Proximity Assay (SPA), displacement of 3H labeled darglitazone; type: binding; details: 3H darglitazone displacement, read-out: PPAR-gamma Ki
T2 sequence (P37231 1-505): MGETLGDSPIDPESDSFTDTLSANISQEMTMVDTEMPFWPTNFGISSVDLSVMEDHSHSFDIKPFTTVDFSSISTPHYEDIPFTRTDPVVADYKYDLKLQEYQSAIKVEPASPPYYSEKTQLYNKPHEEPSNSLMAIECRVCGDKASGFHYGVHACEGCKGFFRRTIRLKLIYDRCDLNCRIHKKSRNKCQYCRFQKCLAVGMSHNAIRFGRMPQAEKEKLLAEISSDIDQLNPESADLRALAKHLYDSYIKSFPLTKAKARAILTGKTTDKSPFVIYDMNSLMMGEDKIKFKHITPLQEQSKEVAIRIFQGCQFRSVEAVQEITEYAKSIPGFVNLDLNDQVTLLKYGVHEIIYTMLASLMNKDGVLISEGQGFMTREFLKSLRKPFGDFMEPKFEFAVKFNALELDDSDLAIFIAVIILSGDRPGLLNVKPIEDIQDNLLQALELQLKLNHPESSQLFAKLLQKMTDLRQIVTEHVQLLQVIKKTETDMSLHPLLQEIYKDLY
Excerpt: as §1, §2

Row | Compound | Ki (PPAR-α) [µM] | Ki (PPAR-γ) [µM]
1 | Cc1oc(-c2ccccc2)nc1CCCc1ccc(OC2(C(=O)O)CCC2)cc1 [Example C-15] | 3.2 | 14
2 | Cc1oc(-c2ccccc2)nc1CCOc1ccc(CC2(C(=O)O)CCCCO2)nc1 (centres unmarked) [Example C-57] | 1.8 | 1.1
3 | O=C(O)C1(Cc2ccc(OCCc3ccc(-c4cccc(OC(F)(F)F)c4)cc3)cc2)CCC1 [Example C-09] | 4.6 | 1.4
4 | COC(C)(Cc1ccc(OCCc2ccc(OC(F)(F)F)cc2)nc1)C(=O)O [Example D-41] | 5.9 | 
5 | Cc1oc(-c2ccccc2)nc1CCCc1ccc(CC2(C(=O)O)CCCO2)cn1 (centres unmarked) [Example C-74] | 0.9 | 0.64
6 | Cc1nn(-c2ccccc2)nc1CCOc1cccc(-c2cccc(OC(C)(C)C(=O)O)c2)c1 [Example A-26] | 0.33 | 0.15
7 | CCC(Oc1cccc(CNC(=O)OCc2ccc(-c3noc(C)n3)cc2)c1)C(=O)O (centres unmarked) [Example B-27] | 0.22 | 
8 | Cc1oc(-c2ccccc2)nc1CCCOC(=O)NCc1cccc(OC(C)(C)C(=O)O)c1 [Example B-19] | 0.34 | 0.74
9 | Cc1oc(-c2ccccc2)nc1CCOc1ccc(CC2(c3nnn[nH]3)CCCO2)cn1 (centres unmarked) [Example C-95, 2-[2-(5-Methyl-2-phenyl-oxazol-4-yl)-ethoxy]-5-[2-(1H-tetrazol-5-yl)-tetrahydro-furan-2-ylmethyl]-pyridine] | 8.6 | 0.97
10 | COc1ccc(-c2nc(CCOc3ccc(CC4(C(=O)O)CCCO4)cc3)c(C)o2)cc1 (centres unmarked) [Example C-84] | 0.064 | 0.021
11 | O=C(O)C1(Oc2ccc(OCc3nc(-c4ccccc4)oc3-c3ccccc3)cc2)CCC1 [Example C-36] | 21 | 1.7
12 | Cc1oc(-c2cc(F)cc(F)c2)nc1CCOc1cccc(-c2cccc(OC(C)(C)C(=O)O)c2)c1 [Example A-22] | 0.85 | 0.17
13 | Cc1oc(-c2ccccc2)nc1CCOc1ccc(CC2(C(=O)O)CCCO2)cc1 (centres unmarked) [Example C-78] | 0.015 | 0.006
14 | CCOC(Cc1ccc(OCCc2ccc(Oc3ccccc3)cc2)nc1)C(=O)O [Example D-14] | 2.6 | 1.5
15 | COC(C)(Cc1ccc(OCCc2nc(C3CCCCC3)oc2C)nc1)C(=O)O [Example D-32] | 0.059 | 1.5
16 | Cc1oc(-c2ccccc2)nc1CCOc1ccc(CC2(C(=O)O)CCCCC2)cn1 [Example C-47] | 8.3 | 
17 | Cc1ccccc1CCOc1ccc(CC2(C(=O)O)CCCO2)cn1 (centres unmarked) [Example C-70] | 6.4 | 
18 | CC(C)(Oc1cccc(CNC(=O)OCc2cccc(Oc3ccccc3)c2)c1)C(=O)O [Example B-10] | 0.19 | 0.17
19 | Cc1oc(-c2ccccc2)nc1CCOC(=O)NCc1ccc(OC(C)(C)C(=O)O)cc1F [Example B-09] | 2.2 | 1.9
20 | COC(Cc1ccc(OCCc2nc(-c3ccc(C(F)(F)F)cc3)oc2C)nc1)C(=O)O [Example D-09] | 0.05 | 0.061
21 | Cc1oc(-c2ccccc2)nc1CCOc1ccc(CC2(C(=O)O)CCCC2)cn1 [Example C-46] | 3.5 | 2

Row | Compound | Ki (PPAR-α) [µM] | Ki (PPAR-γ) [µM]
22 | Cc1cccc(-c2nc(CCOc3ccc(CC4(C(=O)O)CCC4)cc3)c(C)o2)c1 [Example C-32] | 0.15 | 0.035
23 | COC(C)(Cc1ccc(OCCc2ccc(Oc3ccccc3)cc2)nc1)C(=O)O [Example D-40] | 1.8 | 9.6
24 | Cc1nn(-c2ccccc2)nc1COc1cccc(-c2cccc(OC3(C(=O)O)CCC3)c2)c1 [Example A-18] | 14 | 1.7
25 | Cc1ccc(CCOc2ccc(CC3(C(=O)O)CCCO3)cn2)cc1 (centres unmarked) [Example C-71] | 9.7 | 
26 | CCC(Oc1cccc(CNC(=O)OCCCc2nc(-c3ccccc3)oc2C)c1)C(=O)O (centres unmarked) [Example B-18] | 0.082 | 
27 | CCOc1ccc(CCOc2ccc(CC(OCC)C(=O)O)cn2)cc1 [Example D-21] | 10 | 2.1
28 | Cc1oc(-c2ccccc2)nc1CCCCc1ccc(CC2(C(=O)O)CCCO2)cn1 (centres unmarked) [Example C-75] |  | 0.82
29 | COC(C)(Cc1ccc(OCCc2nc(-c3cc(C)nn3C)oc2C)nc1)C(=O)O [Example D-39] |  | 5
30 | Cc1oc(-c2cccc(F)c2)nc1CCOc1cccc(-c2cccc(OC(C)(C)C(=O)O)c2)c1 [Example A-21] | 0.31 | 0.088
31 | COc1ccc(-c2nc(COc3cccc(-c4cccc(OC5(C(=O)O)CCC5)c4)c3)no2)cc1 [Example A-17] | 1.6 | 1.9
32 | CCOC(Cc1cccc(CNC(=O)OCCCc2nc(-c3ccccc3)oc2C)c1)C(=O)O (centres unmarked) [Example B-23] | 2.7 | 3.4
33 | CCC(Oc1cccc(CNC(=O)OCCc2nc(-c3ccccc3)oc2C)c1)C(=O)O (centres unmarked) [Example B-13] | 9 | 
34 | Cc1oc(-c2cccc(Cl)c2)nc1CCOc1ccc(CC2(C(=O)O)CCCO2)cn1 (centres unmarked) [Example C-59] | 0.054 | 
35 | CC(C)(Oc1cccc(-c2cccc(OCc3ccc(C(F)(F)F)cc3)c2)c1)C(=O)O [Example A-02, 2-Methyl-2-[(3′-{[4-(trifluoromethyl)benzyl]oxy}1,1′-biphenyl-3-yl)oxy]propanoic acid] | 0.55 | 
36 | COC(C)(Cc1ccc(OCCc2nc(-c3ccccc3)oc2C)nc1)C(=O)O [Example D-35] | 0.33 | 
37 | Cc1oc(-c2ccccc2)nc1CCOc1ccc(CC2(C(=O)O)CCCCO2)cn1 (centres unmarked) [Example C-56] | 0.078 | 
38 | CCC(Oc1cccc(CNC(=O)OCCc2cccc(C(F)(F)F)c2)c1)C(=O)O (centres unmarked) [Example B-02] | 2.2 | 
39 | CS(=O)(=O)Oc1ccc(CCOc2ccc(CC3(C(=O)O)CCCO3)cn2)cc1 (centres unmarked) [Example C-72] | 7.1 | 
40 | CC(C)(C)OC(=O)Nc1ccc(CCOc2ccc(CC3(C(=O)O)CCCO3)cn2)cc1 (centres unmarked) [Example C-73] |  | 0.042
41 | Cc1oc(-c2ccccc2)nc1CCOc1ccc(C(O)C2(C(=O)O)CCC2)cn1 (centres unmarked) [Example C-44] | 36 | 
42 | O=C(O)C1(Cc2ccc(OCCCc3nc(-c4ccccc4)oc3-c3ccccc3)cc2)CCC1 [Example C-38] |  | 7.2

Row | Compound | Ki (PPAR-α) [µM] | Ki (PPAR-γ) [µM]
43 | Cc1oc(-c2ccccc2)nc1CCCOc1ccc(CC2(C(=O)O)CCCC2)cc1 [Example C-03] | 2.9 | 
44 | Cc1oc(-c2ccc(Cl)cc2)nc1CCOc1ccc(CC2(C(=O)O)CCCO2)cn1 (centres unmarked) [Example C-64] | 0.014 | 
45 | Cc1oc(-c2ccccc2)nc1CCOc1ccc(CC2(C(=O)O)CCCC2)cc1 [Example C-02] | 0.39 | 
46 | CCOC(Cc1ccc(OCCCc2nc(-c3ccccc3)oc2C)cn1)C(=O)O [Example D-24] | 0.93 | 
47 | COc1ccc(-c2nc(CCOc3ccc(CC4(C(=O)O)CCCO4)cn3)c(C)o2)cc1 (centres unmarked) [Example C-60] | 0.065 | 
48 | COC(Cc1ccc(OCCc2ccc(OS(C)(=O)=O)cc2)nc1)C(=O)O [Example D-12] |  | 8.1
49 | CCOC(Cc1ccc(OCCc2nc(C)sc2C)cn1)C(=O)O [Example D-25] |  | 2.9
50 | Cc1nc(CCOc2ccc(CC3(C(=O)O)CCCO3)cn2)c(C)s1 (centres unmarked) [Example C-68] |  | 4.2
51 | CC(Cc1ccccc1)OC(=O)NCc1cccc(OC(C)(C)C(=O)O)c1 (centres unmarked) [Example B-28] | 7.8 | 
52 | Cc1oc(-c2ccc(C(F)(F)F)cc2)nc1CCOc1ccc(CC2(C(=O)O)CCCO2)cn1 (centres unmarked) [Example C-63] | 0.021 | 
53 | Cc1oc(-c2ccc(C(F)(F)F)c(F)c2)nc1CCOc1ccc(CC2(C(=O)O)CCCO2)cc1 (centres unmarked) [Example C-82] |  | 0.016
54 | Cc1oc(-c2ccccc2)nc1CCCOc1ccc(CC2(C(=O)O)CCCO2)nc1 (centres unmarked) [Example C-55] |  | 6
55 | COC(C)(Cc1ccc(OCCCc2nc(-c3ccccc3)oc2C)nc1)C(=O)O [Example D-27] |  | 7.8
56 | Cc1oc(-c2ccccc2)nc1CCOc1cccc(-c2cccc(OC3(C(=O)O)CCC3)c2)n1 [Example A-07] | 0.12 | 
57 | Cc1ccc(-c2nc(CCOc3ccc(CC4(C(=O)O)CCCO4)cn3)c(C)o2)cc1 (centres unmarked) [Example C-66] | 0.031 | 
58 | COC(C)(Cc1ccc(OCCc2nc(C(C)C)oc2C)nc1)C(=O)O [Example D-38] |  | 9.6
59 | Cc1oc(-c2ccccc2)nc1CCOc1ccc(CC2(C(=O)O)CCCO2)cn1 (centres unmarked) [Example C-48, 2-({6-[2-(5-methyl-2-phenyl-1,3-oxazol-4-yl)ethoxy]pyridin-3-yl}methyl)tetrahydrofuran-2-carboxylic acid] | 0.24 | 
60 | CCOC(Cc1ccc(OCCc2ccc(OCCOC)cc2)nc1)C(=O)O [Example D-16] |  | 6.4
61 | CC(C)(Oc1cccc(CNS(=O)(=O)c2ccc(Oc3ccccc3)cc2)c1)C(=O)O [Example B-20] | 1.6 | 
62 | Cc1oc(-c2ccccc2)nc1CCOc1ccc(CC2(C(=O)O)CCOCC2)cc1 [Example C-05] | 15 | 
